{"source": "patent US6823530B2", "about": "“Antimicrobial treatment for swimwear” (Kimberly-Clark Worldwide, Inc., priority 2000, dated 2004)", "origin": "cited, not measured here", "key": {"[1]": {"tested_on": "gram negative and positive bacteria"}}}
{"smiles": "CC1(C)C(=O)N(CO)C(=O)N1CO", "note": "[DMDM Hydantoin, DMDM (dimethyl dimethyl) Hydantoin]", "values": [{"measurement": "thermal stability", "setting": "held above room temperature (50° Celsius) for a long period of time", "result": "does not break down"}, {"measurement": "pH stability", "setting": "wide pH range", "result": "stable over a wide pH range"}, {"measurement": "effectiveness against gram negative and positive bacteria", "setting": "[1]", "result": "highly effective"}]}
